{
  "source": "patent US5464835A",
  "about": "“Use for bis-heterocyclic compounds and pharmaceutical compositions containing same” (Harbor Branch Oceanographic Institution, Inc., priority 1994, dated 1995)",
  "key": {"[1]": {"target": "bee venom phospholipase A2 (Apis mellifera, UniProt P00630)", "sequence (P00630 34-167 limits assumed)": "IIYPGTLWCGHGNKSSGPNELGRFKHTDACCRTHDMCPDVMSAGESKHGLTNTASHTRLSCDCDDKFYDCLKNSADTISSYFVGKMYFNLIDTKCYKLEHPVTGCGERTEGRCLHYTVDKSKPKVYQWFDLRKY", "experiment": "biochemical", "format": "biochemical", "conditions": "for inhibition at 1 µM: final concentration 1 μM; for inhibition at 1 µM / inhibition at 1.6 µM: read-out: % Inactivation of bee venom phospholipase A2; for inhibition at 1.6 µM: final concentration 1.6 μM"}, "[2]": {"tested_on": "PMA-induced mouse ear edema", "experiment": "Mouse ear anti-inflammatory assay (topical inhibition of PMA-induced edema)", "conditions": "for percent inhibition of mouse ear edema (dose-response): FIG. 3; for % Inhibition of edema / ED50, topical inhibition of PMA-induced mouse ear edema: topical; for % Inhibition of edema: Table 3; for inhibition of PMA-induced edema / anti-inflammatory activity (in words): result in words; for ED50, topical inhibition of PMA-induced mouse ear edema: simultaneous with PMA, 3 h 20 min, Table 2; for percent inhibition of edema (dose-response): FIG. 2", "protocol": "A. Mouse ear anti-inflammatory assay. The test compound and a known inflammatory agent, phorbol myristate acetate (PMA), are topically applied simultaneously to the left ears of mice. Three hours and 20 minutes following application, the mice are sacrificed. Both left and right ears are removed and standard-sized bores taken. Edema (inflammation) is measured as the difference in weight between left and right ears (Van Arman, C. G. [1974] Clin. Pharmacol. Ther. 16:900-904)."}, "Candida albicans": {"tested_on": "Candida albicans", "experiment": "Antifungal activity against Candida albicans (MIC, RPMI-1640 growth medium)", "format": "cell-based"}},
  "data": [
    {"smiles": "O=C(c1nc(-c2c[nH]c3cc(Br)ccc23)c[nH]1)c1c[nH]c2cc(O)ccc12", "note": "[Bromotopsentin]", "values": [
      {"measurement": "inhibition at 1 µM", "setting": "[1]; 1 h", "value": 33, "unit": "%"},
      {"measurement": "percent inhibition of mouse ear edema (dose-response)", "setting": "[2]; 50 μg/ear", "value": "about 75%"},
      {"measurement": "percent inhibition of mouse ear edema (dose-response)", "setting": "[2]; approximately 25 μg/ear", "value": "about 20%"},
      {"measurement": "% Inhibition of edema", "setting": "[2]; dose 50 μg/ear", "value": 75.4, "unit": "%"},
      {"measurement": "inhibition of PMA-induced edema / anti-inflammatory activity (in words)", "setting": "[2]", "value": "significant potency"}
    ]},
    {"smiles": "CN1CC(c2c[nH]c3c(Br)c(Br)cc(O)c23)NCC1c1c[nH]c2cc(Br)ccc12", "note": "(stereo not shown) [Dragmacidin]", "values": [
      {"measurement": "inhibition at 1 µM", "setting": "[1]; 1 h", "value": 27, "unit": "%"},
      {"measurement": "% Inhibition of edema", "setting": "[2]; dose 50 μg/ear", "value": 64.0, "unit": "%"},
      {"measurement": "inhibition of PMA-induced edema / anti-inflammatory activity (in words)", "setting": "[2]", "value": "significant potency"}
    ]},
    {"smiles": "O=C1NC(c2c[nH]c3cc(Br)ccc23)CN=C1c1c[nH]c2cc(Br)ccc12", "note": "(stereo not shown) [Hamacanthin A]", "values": [
      {"measurement": "inhibition at 1.6 µM", "setting": "[1]; 1 h", "value": 37, "unit": "%"},
      {"measurement": "antifungal activity (in words)", "setting": "Candida albicans", "value": "active components"},
      {"measurement": "% Inhibition of edema", "setting": "[2]; dose 50 μM (so in the source)", "value": 50.0, "unit": "%"}
    ]},
    {"smiles": "O=C1NCC(c2c[nH]c3cc(Br)ccc23)N=C1c1c[nH]c2cc(Br)ccc12", "note": "(stereo not shown) [Hamacanthin B]", "values": [
      {"measurement": "inhibition at 1.6 µM", "setting": "[1]; 1 h", "value": 32, "unit": "%"},
      {"measurement": "antifungal activity (in words)", "setting": "Candida albicans", "value": "active components"},
      {"measurement": "% Inhibition of edema", "setting": "[2]; dose 50 μM (so in the source)", "value": 34.0, "unit": "%"}
    ]},
    {"smiles": "C[C@]12CCC(=O)C=C1CC[C@@H]1[C@@H]2[C@@H](O)C[C@@]2(C)[C@H]1CC[C@]2(O)C(=O)CO", "note": "[Hydrocortisone, reference compound]", "values": [
      {"measurement": "IC50", "setting": "[1]", "value": "> 1000", "unit": "µM"},
      {"measurement": "inactivation of bee venom phospholipase A2 (in words)", "setting": "[1]", "value": "inactive"},
      {"measurement": "ED50, topical inhibition of PMA-induced mouse ear edema", "setting": "[2]", "value": 20, "unit": "μg/ear"}
    ]},
    {"smiles": "COc1ccc2c(c1)c(CC(=O)O)c(C)n2C(=O)c1ccc(Cl)cc1", "note": "[Indomethacin, reference compound]", "values": [
      {"measurement": "IC50", "setting": "[1]", "value": "> 1000", "unit": "µM"},
      {"measurement": "inactivation of bee venom phospholipase A2 (in words)", "setting": "[1]", "value": "inactive"},
      {"measurement": "ED50, topical inhibition of PMA-induced mouse ear edema", "setting": "[2]", "value": 250, "unit": "μg/ear"}
    ]},
    {"smiles": "CC1=C(CC/C(C)=C/CCC2=CC[C@H](C3=CC(=O)O[C@H]3O)O[C@H]2O)C(C)(C)CCC1", "note": "[Manoalide, reference compound]", "values": [
      {"measurement": "IC50", "setting": "[1]", "value": 0.05, "unit": "µM"},
      {"measurement": "ED50, topical inhibition of PMA-induced mouse ear edema", "setting": "[2]", "value": 100, "unit": "μg/ear"}
    ]},
    {"smiles": "Brc1ccc2c(-c3c[nH]c(-c4c[nH]c5cc(Br)ccc45)n3)c[nH]c2c1", "note": "[Nortopsentin A]", "values": [
      {"measurement": "inhibition at 1 µM", "setting": "[1]; 1 h", "value": 30, "unit": "%"},
      {"measurement": "% Inhibition of edema", "setting": "[2]; dose 50 μg/ear", "value": 98.1, "unit": "%"},
      {"measurement": "inhibition of PMA-induced edema / anti-inflammatory activity (in words)", "setting": "[2]", "value": "significant potency"}
    ]},
    {"smiles": "Brc1ccc2c(-c3nc(-c4c[nH]c5ccccc45)c[nH]3)c[nH]c2c1", "note": "[Nortopsentin B, nortopsentin B]", "values": [
      {"measurement": "inhibition at 1 µM", "setting": "[1]; 1 h", "value": 27, "unit": "%"},
      {"measurement": "% Inhibition of edema", "setting": "[2]; dose 50 μg/ear", "value": 38.2, "unit": "%"}
    ]},
    {"smiles": "Brc1ccc2c(-c3c[nH]c(-c4c[nH]c5ccccc45)n3)c[nH]c2c1", "note": "[Nortopsentin C, nortopsentin C]", "values": [
      {"measurement": "inhibition at 1 µM", "setting": "[1]; 1 h", "value": 26, "unit": "%"},
      {"measurement": "% Inhibition of edema", "setting": "[2]; dose 50 μg/ear", "value": 70.1, "unit": "%"},
      {"measurement": "inhibition of PMA-induced edema / anti-inflammatory activity (in words)", "setting": "[2]", "value": "significant potency"}
    ]},
    {"smiles": "CC(=O)Oc1ccc2c(C(=O)c3ncc(-c4c[nH]c5ccccc45)n3C(C)=O)c[nH]c2c1", "note": "[Topsentin diacetate, topsentin diacetate]", "values": [
      {"measurement": "inhibition at 1 µM", "setting": "[1]; 1 h", "value": 32, "unit": "%"},
      {"measurement": "% Inhibition of edema", "setting": "[2]; dose 50 μg/ear", "value": 42.6, "unit": "%"},
      {"measurement": "inhibition of PMA-induced edema / anti-inflammatory activity (in words)", "setting": "[2]", "value": "moderate activity"}
    ]},
    {"smiles": "CC(=O)Oc1ccc2c(C(=O)c3ncc(-c4c[nH]c5ccccc45)[nH]3)c[nH]c2c1", "note": "[Topsentin monoacetate]", "values": [
      {"measurement": "inhibition at 1 µM", "setting": "[1]; 1 h", "value": 42, "unit": "%"},
      {"measurement": "% Inhibition of edema", "setting": "[2]; dose 50 μg/ear", "value": 45.8, "unit": "%"},
      {"measurement": "inhibition of PMA-induced edema / anti-inflammatory activity (in words)", "setting": "[2]", "value": "moderate activity"}
    ]},
    {"smiles": "O=C(c1nc(-c2c[nH]c3ccccc23)c[nH]1)c1c[nH]c2cc(O)ccc12", "note": "[Topsentin]", "values": [
      {"measurement": "IC50", "setting": "[1]", "value": 0.5, "unit": "µM"},
      {"measurement": "inactivation of bee venom phospholipase A2 (in words)", "setting": "[1]", "value": "capable of the inactivation of bee venom phospholipase A2"},
      {"measurement": "inhibition at 2 µM", "setting": "[1]; 1 h, read-out: percent inactivation of bee venom phospholipase A2 (dose-response)", "value": "≤ 80", "unit": "%"},
      {"measurement": "inhibition at 1 µM", "setting": "[1]; 1 h", "value": 67, "unit": "%"},
      {"measurement": "percent inhibition of edema (dose-response)", "setting": "[2]; 100 μg/ear", "value": "more than 90%"},
      {"measurement": "percent inhibition of edema (dose-response)", "setting": "[2]; about 12 μg/ear", "value": "~50", "unit": "%"},
      {"measurement": "% Inhibition of edema", "setting": "[2]; dose 50 μg/ear", "value": 70.6, "unit": "%"},
      {"measurement": "inhibition of PMA-induced edema / anti-inflammatory activity (in words)", "setting": "[2]", "value": "significant potency"},
      {"measurement": "inhibition of PMA-induced edema / anti-inflammatory activity (in words)", "setting": "[2]; listed as topsentin", "value": "greater potency than to the known anti-inflammatories hydrocortisone, indomethacin, and manoalide"},
      {"measurement": "ED50, topical inhibition of PMA-induced mouse ear edema", "setting": "[2]", "value": 15, "unit": "μg/ear"}
    ]}
  ]
}
